The record followed here is patent US11208422B2, “Substituted bridged diazepane derivatives and use thereof as TASK-1 and TASK-3 inhibitors” (Bayer Pharma Aktiengesellschaft, priority 2017, dated 2021).

Broadly, the IC50 is the concentration that gives 50% inhibition.

One assay deals with recombinant TASK-3 (Homo sapiens (Human), UniProt Q9NPC2). In words: Inhibition of recombinant TASK-3 in stably transfected CHO cells (KCl-induced depolarization, voltage-sensitive dye, FLIPR). In kind it is cell-based. As to conditions: depolarization induced by 40 mM potassium chloride, some mean values from multiple determinations. Here is the method:
(§1) The compounds of the invention were tested here with administration of 40 mM of potassium chloride in the presence of a voltage-sensitive dye using the method described in detail in the following references [Whiteaker et al., Validation of FLIPR membrane potential dye for high-throughput screening of potassium channel modulators, J. Biomol. Screen. 6 (5), 305-312 (2001); Molecular Devices FLIPR Application Note: Measuring membrane potential using the FLIPR® membrane potential assay kit on Fluorometric Imaging Plate Reader (FLIPR®) systems, http://www.moleculardevices.com/reagents-supplies/assay-kits/ion-channels/flipr-membrane-potential-assay-kits]. The activity of the test substances was determined as their ability to inhibit a depolarization induced in the recombinant cells by 40 mM potassium chloride. The concentration which can block half of this depolarization is referred to as IC50.

The target in the next assay is recombinant TASK-1 (Homo sapiens (Human), UniProt O14649). The assay is described as follows: Inhibition of recombinant TASK-1 in stably transfected CHO cells (KCl-induced depolarization, voltage-sensitive dye, FLIPR). Type of assay: cell-based. As to conditions: depolarization induced by 40 mM potassium chloride, some mean values from multiple determinations. Here is the method:
as §1

Sequence of recombinant TASK-3 (Q9NPC2 whole entry): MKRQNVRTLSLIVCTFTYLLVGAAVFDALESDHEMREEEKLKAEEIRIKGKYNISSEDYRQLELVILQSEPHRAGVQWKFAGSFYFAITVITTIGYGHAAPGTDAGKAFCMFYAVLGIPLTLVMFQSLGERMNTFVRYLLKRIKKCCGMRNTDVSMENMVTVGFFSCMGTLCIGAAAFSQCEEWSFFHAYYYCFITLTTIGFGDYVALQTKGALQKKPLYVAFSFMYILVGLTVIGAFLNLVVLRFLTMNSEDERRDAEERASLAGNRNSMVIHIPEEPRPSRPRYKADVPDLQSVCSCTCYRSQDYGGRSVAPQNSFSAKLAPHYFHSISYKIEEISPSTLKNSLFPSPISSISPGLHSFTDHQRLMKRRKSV
Sequence of recombinant TASK-1 (O14649 whole entry): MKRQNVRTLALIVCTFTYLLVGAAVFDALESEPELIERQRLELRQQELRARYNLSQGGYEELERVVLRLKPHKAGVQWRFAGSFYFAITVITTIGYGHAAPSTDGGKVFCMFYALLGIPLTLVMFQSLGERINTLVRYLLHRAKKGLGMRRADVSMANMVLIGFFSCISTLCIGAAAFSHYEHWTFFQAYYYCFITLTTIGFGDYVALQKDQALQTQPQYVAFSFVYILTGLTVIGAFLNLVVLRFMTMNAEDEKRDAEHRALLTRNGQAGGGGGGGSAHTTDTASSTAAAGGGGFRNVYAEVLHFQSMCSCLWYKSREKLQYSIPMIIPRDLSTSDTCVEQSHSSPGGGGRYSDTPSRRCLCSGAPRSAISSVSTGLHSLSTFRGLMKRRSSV

Turning to `COc1ccc(F)c(C(=O)N2C3CCC2CN(Cc2c(-c4ccc(Cl)cc4)nc4ncccn24)CC3)n1` (single isomer, unassigned) [Example 83, [3-{[2-(4-chlorophenyl)imidazo[1,2-a]pyrimidin-3-yl]methyl}-3,9-diazabicyclo[4.2.1]non-9-yl](3-fluoro-6-methoxypyridin-2-yl)methanone], the 50% inhibitory concentration (IC50) was 17 nM on recombinant TASK-3 and 410 nM at recombinant TASK-1.

On to `COc1cccc(C(=O)N2C3CCC2CN(Cc2c(-c4ccc(Cl)cn4)nc4ccccn24)CC3)n1` (single isomer, unassigned) [Example 84, [3-{[2-(5-chloropyridin-2-yl)imidazo[1,2-a]pyridin-3-yl]methyl}-3,9-diazabicyclo[4.2.1]non-9-yl](6-methoxypyridin-2-yl)methanone], for which the IC50 at recombinant TASK-3 was 25 nM; on recombinant TASK-1 it was 350 nM.

`COc1cccc(C(=O)N2C3CCC2CN(Cc2c(-c4ccc(Cl)cn4)nc4ccccn24)CC3)n1` (single isomer, unassigned) [Example 85, [3-{[2-(5-chloropyridin-2-yl)imidazo[1,2-a]pyridin-3-yl]methyl}-3,9-diazabicyclo[4.2.1]non-9-yl](6-methoxypyridin-2-yl)methanone]: the IC50 at recombinant TASK-3 worked out at 370 nM; at recombinant TASK-1, 6300 nM.

`COc1cccc(C(=O)N2C3CCC2CN(Cc2c(-c4ccc(Cl)cc4)nc4ncccn24)CC3)n1` (single isomer, unassigned) [Example 86, [3-{[2-(4-chlorophenyl)imidazo[1,2-a]pyrimidin-3-yl]methyl}-3,9-diazabicyclo[4.2.1]non-9-yl](6-methoxypyridin-2-yl)methanone]: the half-maximal inhibitory concentration (IC50) at recombinant TASK-3 was 28 nM; on recombinant TASK-1, 340 nM.

For the molecule `COc1cccc(C(=O)N2C3CCC2CN(Cc2c(-c4ccc(Cl)cc4)nc4ncccn24)CC3)n1` (single isomer, unassigned) [Example 87, [3-{[2-(4-chlorophenyl)imidazo[1,2-a]pyrimidin-3-yl]methyl}-3,9-diazabicyclo[4.2.1]non-9-yl](6-methoxypyridin-2-yl)methanone], the IC50 on recombinant TASK-3 was 210 nM; on recombinant TASK-1 it was 1600 nM.

On to `O=C(c1ccccc1F)N1C2CCC1CN(Cc1c(-c3ccc(Cl)cc3)nc3ccccn13)CC2` (single isomer, unassigned) [Example 88, [3-{[2-(4-Chlorophenyl)imidazo[1,2-a]pyridin-3-yl]methyl}-3,9-diazabicyclo[4.2.1]non-9-yl](2-fluorophenyl)methanone], for which the concentration for half-maximal inhibition (IC50) at recombinant TASK-3 was found to be 1.6 nM; on recombinant TASK-1, 91 nM.

As for `O=C(c1ccccc1F)N1C2CCC1CN(Cc1c(-c3ccc(Cl)cc3)nc3ccccn13)CC2` (single isomer, unassigned) [Example 89, [3-{[2-(4-Chlorophenyl)imidazo[1,2-a]pyridin-3-yl]methyl}-3,9-diazabicyclo[4.2.1]non-9-yl](2-fluorophenyl)methanone], the 50% inhibitory concentration (IC50) at recombinant TASK-3 was 19 nM; at recombinant TASK-1 it was 310 nM.

Regarding `COc1cccc(C(=O)N2C3CCC2CN(Cc2c(-c4ccc(Cl)cc4)nc4ccccn24)CC3)n1` (single isomer, unassigned) [Example 90, [3-{[2-(4-Chlorophenyl)imidazo[1,2-a]pyridin-3-yl]methyl}-3,9-diazabicyclo[4.2.1]non-9-yl](6-methoxypyridin-2-yl)methanone], the half-maximal inhibitory concentration (IC50) at recombinant TASK-3 was determined as 2.8 nM; on recombinant TASK-1, 43 nM.

In the case of `COc1cccc(C(=O)N2C3CCC2CN(Cc2c(-c4ccc(Cl)cc4)nc4ccccn24)CC3)n1` (single isomer, unassigned) [Example 91, [3-{[2-(4-Chlorophenyl)imidazo[1,2-a]pyridin-3-yl]methyl}-3,9-diazabicyclo[4.2.1]non-9-yl](6-methoxypyridin-2-yl)methanone], the figures for the IC50 at recombinant TASK-3 and at recombinant TASK-1 were 5.5 nM and 290 nM, respectively.

For `COc1ccc(F)c(C(=O)N2CC3CCC2CN(Cc2c(-c4ccc(Cl)cc4)nc4ccccn24)C3)n1` (single isomer, unassigned) [Example 94, [3-{[2-(4-chlorophenyl)imidazo[1,2-a]pyridin-3-yl]methyl}-3,6-diazabicyclo[3.2.2]non-6-yl](3-fluoro-6-methoxypyridin-2-yl)methanone], the concentration for half-maximal inhibition (IC50) on recombinant TASK-3 turned out to be 110 nM; on recombinant TASK-1, 3200 nM.

For the molecule `COc1cccc(C(=O)N2CC3CCC2CN(Cc2c(-c4ccc(Cl)cc4)nc4ccccn24)C3)n1` (single isomer, unassigned) [Example 95, [3-{[2-(4-chlorophenyl)imidazo[1,2-a]pyridin-3-yl]methyl}-3,6-diazabicyclo[3.2.2]non-6-yl](6-methoxypyridin-2-yl)methanone], the IC50 on recombinant TASK-3 came to 710 nM; on recombinant TASK-1, 4900 nM.

As to `O=C(c1ccccc1F)N1C2CCC1CN(Cc1c(-c3ccc(Cl)cc3)nc3ncccn13)CC2` (single isomer, unassigned; (-)) [Example 81, (−)-[3-{[2-(4-chlorophenyl)imidazo[1,2-a]pyrimidin-3-yl]methyl}-3,9-diazabicyclo[4.2.1]non-9-yl](2-fluorophenyl)methanone], the results for the half-inhibitory concentration (IC50) on recombinant TASK-3 and on recombinant TASK-1 were 9.2 nM and 590 nM, respectively.

On to `COc1cccc(C(=O)N2CCC3CCC2CN3Cc2c(-c3ccc(Cl)cn3)nc3ccccn23)n1` (centres unmarked) [Example 18], for which the half-maximal inhibitory concentration (IC50) at recombinant TASK-3 worked out at 167 nM; on recombinant TASK-1 it was 1600 nM.

`COc1ccc(F)c(C(=O)N2CCC3CCC2CN3Cc2c(-c3ccc(Cl)cn3)nc3ccccn23)n1` (centres unmarked) [Example 19]: the 50% inhibitory concentration (IC50) at recombinant TASK-3 amounted to 580 nM; at recombinant TASK-1, 13500 nM.

For the molecule `COc1ccc(Cl)c(C(=O)N2CCC3CCC2CN3Cc2c(-c3ccc(Cl)cn3)nc3ccccn23)n1` (centres unmarked) [Example 20], the IC50 was determined as 197 nM on recombinant TASK-3 and 3350 nM on recombinant TASK-1.

In the case of `COc1cccc(C(=O)N2CCC3CCC2CN3Cc2c(-c3ccc(Cl)cc3)nc3ncccn23)n1` (centres unmarked) [Example 21], the IC50 is 140 nM at recombinant TASK-3 and 18000 nM at recombinant TASK-1.

For the molecule `O=C(c1ccccc1F)N1CCC2CCC1CN2Cc1c(-c2ccc(Cl)cc2)nc2ncccn12` (centres unmarked) [Example 22], the IC50 on recombinant TASK-3 came out at 370 nM; at recombinant TASK-1, 27000 nM.

In the case of `COc1ccc(Cl)c(C(=O)N2CCC3CCC2CN3Cc2c(-c3ccc(Cl)cc3)nc3ncccn23)n1` (centres unmarked) [Example 23], the IC50 at recombinant TASK-3 is 24 nM; at recombinant TASK-1, 3000 nM.

As to `Nc1nonc1C(=O)N1CCC2CCC1CN2Cc1c(-c2ccc(Cl)cc2)nc2ncccn12` (centres unmarked) [Example 24], the IC50 at recombinant TASK-3 was 24 nM; on recombinant TASK-1 it was 3100 nM.

Turning to `O=C(c1ccccc1F)N1CCC2CCC1CN2Cc1c(-c2ccc(Cl)cc2)nc2ncccn12` (centres unmarked) [Example 25], the values for the IC50 on recombinant TASK-3 and on recombinant TASK-1 were 11 nM and 1100 nM, respectively.

In the case of `COc1cccc(C(=O)N2CCC3CCC2CN3Cc2c(-c3ccc(Cl)cc3)nc3ccccn23)n1` (centres unmarked) [Example 26], the IC50 at recombinant TASK-3 was determined as 6.9 nM; on recombinant TASK-1 it was 830 nM.

As to `COc1ccc(F)c(C(=O)N2CCC3CCC2CN3Cc2c(-c3ccc(Cl)cc3)nc3ccccn23)n1` (centres unmarked) [Example 27], the 50% inhibitory concentration (IC50) at recombinant TASK-3 is 3 nM; at recombinant TASK-1, 150 nM.

Consider `COc1ccc(Cl)c(C(=O)N2CCC3CCC2CN3Cc2c(-c3ccc(Cl)cc3)nc3ccccn23)n1` (centres unmarked) [Example 28], for which the concentration for half-maximal inhibition (IC50) came out at 5.6 nM at recombinant TASK-3 and 280 nM on recombinant TASK-1.

`Nc1nonc1C(=O)N1CCC2CCC1CN2Cc1c(-c2ccc(Cl)cc2)nc2ccccn12` (centres unmarked) [Example 29]: the IC50 on recombinant TASK-3 was determined as 4.4 nM; at recombinant TASK-1, 660 nM.

Turning to `O=C(c1ccccc1F)N1CCC2CCC1CN2Cc1c(-c2ccc(Cl)cn2)nc2ccccn12` (centres unmarked) [Example 30], the IC50 amounted to 220 nM at recombinant TASK-3 and 2300 nM at recombinant TASK-1.
